“And” between values parts separate entries of the source, which are not always exact repeats. Equal values may be shown once.
System: 883617-216-R-J1-PDC complex spheroids, growth, % test/control
Assay: Anticancer human tumor 883617-216-R-J1-PDC patient-derived bladder carcinoma cell line growth inhibition [AhR]
Conditions: for viability, T/C: stronger effect = lower value
How it was run: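 Complex tumor spheroids co-cultured with HUVEC and human MSC stroma; AhR antagonists tested in combination with standard-of-care and investigational agents. Top concentration at or near clinical Cmax (else 10 microM), half-log dilutions; growth expressed as percent test/control.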

[1] = curve of first compound, second compound 0.1 µM
[2] = curve of first compound, second compound 0.316 µM
[3] = curve of first compound, second compound 1 µM
[4] = curve of first compound, second compound 3.16 µM
[5] = curve of first compound, second compound 10 µM
[6] = second compound 0.1 µM, first compound 0.0316 µM
[7] = second compound 0.1 µM, first compound 0.1 µM
[8] = second compound 0.1 µM, first compound 0.316 µM
[9] = second compound 0.1 µM, first compound 1 µM
[10] = second compound 0.1 µM, first compound 3.16 µM
[11] = second compound 0.1 µM, first compound 10 µM
[12] = second compound 0.316 µM, first compound 0.0316 µM
[13] = second compound 0.316 µM, first compound 0.1 µM
[14] = second compound 0.316 µM, first compound 0.316 µM
[15] = second compound 0.316 µM, first compound 1 µM
[16] = second compound 0.316 µM, first compound 3.16 µM
[17] = second compound 0.316 µM, first compound 10 µM
[18] = second compound 1 µM, first compound 0.0316 µM
[19] = second compound 1 µM, first compound 0.1 µM
[20] = second compound 1 µM, first compound 0.316 µM
[21] = second compound 1 µM, first compound 1 µM
[22] = second compound 1 µM, first compound 3.16 µM
[23] = second compound 1 µM, first compound 10 µM
[24] = second compound 3.16 µM, first compound 0.0316 µM
[25] = second compound 3.16 µM, first compound 0.1 µM
[26] = second compound 3.16 µM, first compound 0.316 µM
[27] = second compound 3.16 µM, first compound 1 µM
[28] = second compound 3.16 µM, first compound 3.16 µM
[29] = second compound 3.16 µM, first compound 10 µM
[30] = second compound 10 µM, first compound 0.0316 µM
[31] = second compound 10 µM, first compound 0.1 µM
[32] = second compound 10 µM, first compound 0.316 µM
[33] = second compound 10 µM, first compound 1 µM
[34] = second compound 10 µM, first compound 3.16 µM
[35] = second compound 10 µM, first compound 10 µM
[36] = second compound 0.1 µM, first compound 0.00316 µM
[37] = second compound 0.1 µM, first compound 0.01 µM
[38] = second compound 0.316 µM, first compound 0.00316 µM
[39] = second compound 0.316 µM, first compound 0.01 µM
[40] = second compound 1 µM, first compound 0.00316 µM
[41] = second compound 1 µM, first compound 0.01 µM
[42] = second compound 3.16 µM, first compound 0.00316 µM
[43] = second compound 3.16 µM, first compound 0.01 µM
[44] = second compound 10 µM, first compound 0.00316 µM
[45] = second compound 10 µM, first compound 0.01 µM
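Note: exposure lasted 7 days after dosing on day 3 of spheroid growth.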

| SMILES | IC50 [1] [nM] | IC50 [2] [nM] | IC50 [3] [nM] | IC50 [4] [nM] | IC50 [5] [nM] | viability, T/C [6] [%] | viability, T/C [7] [%] | viability, T/C [8] [%] | viability, T/C [9] [%] | viability, T/C [12] [%] | viability, T/C [13] [%] | viability, T/C [14] [%] | viability, T/C [15] [%] | viability, T/C [18] [%] | viability, T/C [19] [%] | viability, T/C [20] [%] | viability, T/C [24] [%] | viability, T/C [25] [%] | viability, T/C [30] [%] | viability, T/C [31] [%] | further results |
| --- | --- | --- | --- | --- | --- | --- | --- | --- | --- | --- | --- | --- | --- | --- | --- | --- | --- | --- | --- | --- | --- |
| COc1cc(C2c3cc4c(cc3C(OC3OC5COC(C)OC5C(O)C3O)C3COC(=O)C23)OCO4)cc(OC)c1O (configuration not stated) + Cc1cncc(-c2nc(NCCc3c[nH]c4ccccc34)c3ncn(C(C)C)c3n2)c1 | > 10000 | > 10000 | > 10000 | > 10000 | 68.8 | 77.3 | 81.3 | 70 | 66.8 | 84.9 | 81.1 | 73.6 | 65.3 | 91.4 | 86.4 | 78.7 | 89.9 | 89 | 51.4 | 50.3 | viability, T/C [10]: 69.6%; viability, T/C [11]: 57.4%; viability, T/C [16]: 64.1%; viability, T/C [17]: 60.9%; viability, T/C [21]: 71.5%; viability, T/C [22]: 81.4%; viability, T/C [23]: 64.7%; viability, T/C [26]: 80.1%; viability, T/C [27]: 79%; viability, T/C [28]: 70%; viability, T/C [29]: 65.6%; viability, T/C [32]: 49.9%; viability, T/C [33]: 39.1%; viability, T/C [34]: 41.5%; viability, T/C [35]: 45.5% |
| CC(C)c1c(-c2ccccc2)nc2c(C#N)c[nH]n2c1=O + Cc1ccccc1N=Nc1ccc(NC(=O)c2ccnn2C)c(C)c1 | > 10000 | > 10000 | > 10000 | > 10000 | > 10000 | 91.7 | 101 | 85.9 | 103 | 99.1 | 94.6 | 86.6 | 93.9 | 84 | 85 | 87.7 | 87.7 | 89.6 | 75.4 | 78.3 | viability, T/C [10]: 101%; viability, T/C [11]: 93.7%; viability, T/C [16]: 86%; viability, T/C [17]: 91.1%; viability, T/C [21]: 84.8%; viability, T/C [22]: 91%; viability, T/C [23]: 91.6%; viability, T/C [26]: 72.8%; viability, T/C [27]: 84.5%; viability, T/C [28]: 82.9%; viability, T/C [29]: 77.7%; viability, T/C [32]: 82.1%; viability, T/C [33]: 79.3%; viability, T/C [34]: 75.9%; viability, T/C [35]: 82.9% |
| O=C(C=Cn1cnc(-c2cc(C(F)(F)F)cc(C(F)(F)F)c2)n1)NNc1cnccn1 | – | – | – | – | – | – | – | – | – | – | – | – | – | – | – | – | – | – | – | – | viability, T/C (compound 0.00949 µM): 89.8% and 81.2% and 74.5%; viability, T/C (compound 0.03 µM): 88.8% and 78.5% and 89%; viability, T/C (compound 0.0949 µM): 67.4% and 63% and 65.5%; viability, T/C (compound 0.3 µM): 56.7% and 51.7% and 68.9%; viability, T/C (compound 0.949 µM): 45.9% and 42.6% and 45.6%; viability, T/C (compound 3 µM): 28.2% and 30.1% and 35.2%; IC50 (curve of compound): 552 nM and 386 nM and 803 nM |
| Cn1ncnc1C1c2n[nH]c(=O)c3cc(F)cc(c23)NC1c1ccc(F)cc1 (configuration not stated) + Cc1cncc(-c2nc(NCCc3c[nH]c4ccccc34)c3ncn(C(C)C)c3n2)c1 | > 100 | > 100 | > 100 | > 100 | > 100 | 78 | 75.2 | – | – | 90.1 | 80.9 | – | – | 82.7 | 88.7 | – | 98.2 | 95.1 | 56.3 | 62.6 | viability, T/C (second compound 0.1 µM, first compound 0.000316 µM): 97.3%; viability, T/C (second compound 0.1 µM, first compound 0.001 µM): 97.5%; viability, T/C [36]: 82.8%; viability, T/C [37]: 80.6%; viability, T/C (second compound 0.316 µM, first compound 0.000316 µM): 90.7%; viability, T/C (second compound 0.316 µM, first compound 0.001 µM): 97.4%; viability, T/C [38]: 90.1%; viability, T/C [39]: 86.5%; viability, T/C (second compound 1 µM, first compound 0.000316 µM): 100%; viability, T/C (second compound 1 µM, first compound 0.001 µM): 101%; viability, T/C [40]: 97.2%; viability, T/C [41]: 87.5%; viability, T/C (second compound 3.16 µM, first compound 0.000316 µM): 106%; viability, T/C (second compound 3.16 µM, first compound 0.001 µM): 106%; viability, T/C [42]: 102%; viability, T/C [43]: 103%; viability, T/C (second compound 10 µM, first compound 0.000316 µM): 51%; viability, T/C (second compound 10 µM, first compound 0.001 µM): 56.3%; viability, T/C [44]: 56.5%; viability, T/C [45]: 61.2% |
| COc1cc(Nc2ncc3c(n2)-c2ccc(Cl)cc2C(c2c(F)cccc2OC)=NC3)ccc1C(=O)O + CC(CO)NC(=O)c1cc(-c2ccc(Cl)cc2)nn(-c2cnn(C)c2)c1=O | > 10000 | > 10000 | > 10000 | > 10000 | > 10000 | 140 | 128 | 77.8 | 97 | 128 | 85 | 80.5 | 87 | 124 | 123 | 93.3 | 77 | 103 | 130 | 71 | viability, T/C [10]: 86.6%; viability, T/C [11]: 120%; viability, T/C [16]: 60.8%; viability, T/C [17]: 95.6%; viability, T/C [21]: 48.3%; viability, T/C [22]: 103%; viability, T/C [23]: 101%; viability, T/C [26]: 135%; viability, T/C [27]: 105%; viability, T/C [28]: 70.9%; viability, T/C [29]: 70.6%; viability, T/C [32]: 121%; viability, T/C [33]: 125%; viability, T/C [34]: 71.7%; viability, T/C [35]: 88.4% |
| CC1(C)CCC(CN2CCN(c3ccc(C(=O)NS(=O)(=O)c4ccc(NCC5CCOCC5)c([N+](=O)[O-])c4)c(Oc4cnc5[nH]ccc5c4)c3)CC2)=C(c2ccc(Cl)cc2)C1 + CC(CO)NC(=O)c1cc(-c2ccc(Cl)cc2)nn(-c2cnn(C)c2)c1=O | > 10000 | > 10000 | > 10000 | > 10000 | > 10000 | 77 | 90.8 | 136 | 95.4 | 83.2 | 93.9 | 102 | 88.2 | 90.6 | 114 | 152 | 79.5 | 132 | 91.9 | 143 | viability, T/C [10]: 90.3%; viability, T/C [11]: 59.4%; viability, T/C [16]: 96.9%; viability, T/C [17]: 68.5%; viability, T/C [21]: 71.4%; viability, T/C [22]: 82.4%; viability, T/C [23]: 78.2%; viability, T/C [26]: 97.1%; viability, T/C [27]: 115%; viability, T/C [28]: 83.4%; viability, T/C [29]: 68.7%; viability, T/C [32]: 171%; viability, T/C [33]: 83.9%; viability, T/C [34]: 122%; viability, T/C [35]: 103% |
| CC1COCCN1c1cc(-c2ccnn2C)c2ccnc(-c3ccn[nH]3)c2n1 (configuration not stated) + Cc1ccccc1N=Nc1ccc(NC(=O)c2ccnn2C)c(C)c1 | 906 | > 1000 | 813 | 491 | 624 | 76.7 | 74.6 | 58.6 | 49.1 | 85.9 | 69.6 | 55.7 | 51.4 | 70.3 | 67.7 | 56 | 71.2 | 71.2 | 66.6 | 61.7 | viability, T/C [36]: 98%; viability, T/C [37]: 96.6%; viability, T/C [38]: 97.7%; viability, T/C [39]: 83.3%; viability, T/C [40]: 84.4%; viability, T/C [41]: 88.8%; viability, T/C [21]: 48.4%; viability, T/C [42]: 86.5%; viability, T/C [43]: 81.2%; viability, T/C [26]: 49.8%; viability, T/C [27]: 44.3%; viability, T/C [44]: 77.9%; viability, T/C [45]: 79.7%; viability, T/C [32]: 52.4%; viability, T/C [33]: 48.1% |
